Test results: US10543213B2, “Treatment of relapsed and/or refractory solid tumors and non-hodgkin's lymphomas” (Celgene Quanticel Research, Inc., priority 2016, dated 2020)
Read-outs that look alike come from different tables or passages of the source.

Tests used:
NCI-H1417 SCLC xenograft = assay: Efficacy in NCI-H1417 SCLC xenograft model; assay type: in vivo, female athymic nude mice
LXFS 573 SCLC PDX [1] = assay: Efficacy in LXFS 573 SCLC PDX model; assay type: in vivo, female immunodeficient NMRI-Foxn1nu mice; settings: 5, 7.5, 10 mg/kg oral
MKL-1 hMCC xenograft = assay type: in vivo; settings: 5 mg/kg 5 on/2 off
[2] = 4-week toxicity study (no recovery period) in dogs; settings: Q2W administration, not determined
[3] = 4-week toxicity study with 4-week recovery in mice; settings: 25 mg base/kg/dose QOD×3 weekly, males
[4] = Metabolism in cryopreserved primary hepatocytes; assay type: in vitro ADME; settings: hepatocytes of mouse, rat, dog, monkey, human
[5] = Exploratory toxicity study in mice; assay type: in vivo, CD-1 mice; settings: for reduction in neutrophil counts vs concurrent controls: 60 mg/kg/dose QOD
From the text: Additional animals were included for TK evaluation.

[6] = system: Salmonella typhimurium TA98 and TA100 strains; assay: Bacterial reverse mutation assay; assay type: cell-based; settings: up to 500 μg/mL, presence and absence of S9
[7] = system: recombinant human CYP enzymes; assay: CYP reaction phenotyping with recombinant human CYP enzymes; assay type: in vitro ADME
From the text: The role of non-CYP enzymes in the metabolism of Compound A is yet to be ascertained.

[8] = Excretion in bile duct cannulated rats; assay type: in vivo; settings: IV, 24-hour period post dosing
LU2514 SCLC PDX = assay type: in vivo
Protocol: Tumor growth inhibition analysis was performed on Day 28 post treatment, the last day of dosing.

[9] = 4-week oral gavage pivotal toxicity study with 4-week recovery in dogs; assay type: in vivo, Beagle dogs
[10] = Hemodynamic and ECG parameters in anesthetized guinea pigs; assay type: in vivo, male Dunkin Hartley guinea pigs
From the text: Animals were monitored throughout the experiment.

[11] = Pharmacokinetics across species (statements covering several species); assay type: in vivo, mice, rats, dogs, and monkeys; settings: plasma; for half-life: intravenous; for bioavailability: po
Protocol: Disparate half-lives were noted between rodents and non-rodents with values ranging from either 2 to 4 hours in rodents or from 12 to 20 hours in non-rodents.

MS-1 hMCC xenograft = assay type: in vivo; settings: 5 mg/kg 5 on/2 off; Day 36 minus Day -3
LXFS 1129 SCLC PDX = assay: Efficacy in LXFS 1129 SCLC PDX model; assay type: in vivo, female immunodeficient NMRI-Foxn1nu mice; settings: 1.5 and 5 mg base/kg QD for 30 days
[12] = Pharmacokinetics following IV and oral administration, mice; assay type: in vivo, CD-1 mice; settings: Mouse, Female, single oral dose 10 mg base/kg
CYP2C9 = CYP2C9 (Homo sapiens (Human), UniProt P11712); assay: CYP inhibition in pooled human liver microsomes, CYP2C9; assay type: in vitro ADME; settings: up to 50 μM
CYP2C9, sequence (P11712 whole entry): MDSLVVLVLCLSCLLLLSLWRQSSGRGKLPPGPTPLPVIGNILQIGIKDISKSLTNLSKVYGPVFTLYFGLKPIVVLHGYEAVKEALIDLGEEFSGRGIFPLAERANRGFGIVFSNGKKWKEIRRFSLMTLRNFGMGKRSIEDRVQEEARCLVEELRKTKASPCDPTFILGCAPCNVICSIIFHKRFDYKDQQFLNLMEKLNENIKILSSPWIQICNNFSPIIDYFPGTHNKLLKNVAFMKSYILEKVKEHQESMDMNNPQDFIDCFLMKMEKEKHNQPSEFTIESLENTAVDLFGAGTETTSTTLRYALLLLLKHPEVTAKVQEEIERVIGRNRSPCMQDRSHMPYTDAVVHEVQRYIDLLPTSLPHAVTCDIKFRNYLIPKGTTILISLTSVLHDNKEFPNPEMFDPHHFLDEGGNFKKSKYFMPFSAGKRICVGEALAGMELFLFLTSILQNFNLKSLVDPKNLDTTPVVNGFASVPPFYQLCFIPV

CYP2D6 = CYP2D6 (Homo sapiens (Human), UniProt P10635); assay: CYP inhibition in pooled human liver microsomes, CYP2D6; assay type: in vitro ADME; settings: up to 50 μM
CYP2D6, sequence (P10635 whole entry): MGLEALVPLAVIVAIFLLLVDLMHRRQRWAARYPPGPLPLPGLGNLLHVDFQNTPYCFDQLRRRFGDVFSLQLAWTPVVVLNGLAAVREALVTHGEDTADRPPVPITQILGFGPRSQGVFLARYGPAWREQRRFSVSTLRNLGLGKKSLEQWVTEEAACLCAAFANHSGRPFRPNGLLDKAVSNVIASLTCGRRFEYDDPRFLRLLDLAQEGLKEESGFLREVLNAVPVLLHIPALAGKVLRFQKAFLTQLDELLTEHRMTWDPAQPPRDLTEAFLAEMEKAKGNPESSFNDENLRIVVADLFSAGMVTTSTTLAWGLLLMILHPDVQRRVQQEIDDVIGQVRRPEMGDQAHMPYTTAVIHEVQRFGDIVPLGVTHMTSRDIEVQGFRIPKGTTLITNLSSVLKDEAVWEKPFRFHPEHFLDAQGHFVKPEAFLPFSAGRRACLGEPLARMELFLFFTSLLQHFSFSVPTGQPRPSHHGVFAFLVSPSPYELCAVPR

LXFS 615 SCLC PDX = assay: Efficacy in LXFS 615 SCLC PDX model; assay type: in vivo, female immunodeficient NMRI-Foxn1nu mice; settings: 5 mg base/kg oral for 30 days
[13] = Exploratory toxicity study in dogs; assay type: in vivo, Beagle dogs
P-gp (human MDR1) = P-gp (human MDR1) (Homo sapiens (Human), UniProt P08183); assay: Permeability in MDR1-MDCK cells; assay type: in vitro ADME; settings: dog
P-gp (human MDR1), sequence (P08183 whole entry): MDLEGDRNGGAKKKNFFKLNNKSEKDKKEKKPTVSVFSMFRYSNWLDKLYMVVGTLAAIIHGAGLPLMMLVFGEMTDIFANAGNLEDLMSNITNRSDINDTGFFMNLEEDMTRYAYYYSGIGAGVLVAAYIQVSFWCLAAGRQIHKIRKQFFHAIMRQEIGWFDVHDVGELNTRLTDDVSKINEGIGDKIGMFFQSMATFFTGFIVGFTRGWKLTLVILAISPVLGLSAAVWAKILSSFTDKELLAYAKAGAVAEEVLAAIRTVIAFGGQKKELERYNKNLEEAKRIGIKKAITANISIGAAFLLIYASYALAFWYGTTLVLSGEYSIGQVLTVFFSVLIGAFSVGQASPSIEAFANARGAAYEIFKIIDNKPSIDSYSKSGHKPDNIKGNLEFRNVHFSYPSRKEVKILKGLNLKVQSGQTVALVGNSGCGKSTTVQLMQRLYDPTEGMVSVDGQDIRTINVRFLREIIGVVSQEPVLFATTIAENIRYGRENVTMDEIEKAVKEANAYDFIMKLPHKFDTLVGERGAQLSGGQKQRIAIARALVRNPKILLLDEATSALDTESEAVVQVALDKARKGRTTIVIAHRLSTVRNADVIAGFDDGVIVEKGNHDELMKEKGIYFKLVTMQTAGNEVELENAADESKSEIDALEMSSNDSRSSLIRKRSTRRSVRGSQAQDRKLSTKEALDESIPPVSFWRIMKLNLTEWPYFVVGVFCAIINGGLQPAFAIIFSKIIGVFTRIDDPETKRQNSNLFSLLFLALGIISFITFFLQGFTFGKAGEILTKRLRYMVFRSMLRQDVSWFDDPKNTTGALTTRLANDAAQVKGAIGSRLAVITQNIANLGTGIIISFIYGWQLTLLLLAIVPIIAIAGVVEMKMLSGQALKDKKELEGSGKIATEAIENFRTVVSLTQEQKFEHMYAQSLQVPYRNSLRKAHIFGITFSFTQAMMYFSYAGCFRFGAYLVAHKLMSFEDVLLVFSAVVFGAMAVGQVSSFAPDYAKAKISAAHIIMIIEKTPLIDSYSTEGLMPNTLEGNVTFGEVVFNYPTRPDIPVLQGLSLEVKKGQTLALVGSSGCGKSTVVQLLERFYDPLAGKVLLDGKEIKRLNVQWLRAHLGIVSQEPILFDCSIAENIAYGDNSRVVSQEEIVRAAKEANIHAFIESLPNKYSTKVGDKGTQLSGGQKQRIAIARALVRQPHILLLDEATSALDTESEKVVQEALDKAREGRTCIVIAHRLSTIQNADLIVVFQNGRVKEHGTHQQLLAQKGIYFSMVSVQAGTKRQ

[14] = target: MDR1(human P-gp)-MDCK cells (Homo sapiens (Human), UniProt P08183); assay: Permeability in MDR1-MDCK cells; assay type: in vitro ADME
MDR1(human P-gp)-MDCK cells, sequence (P08183 whole entry): as above

[15] = dog, in vivo
[16] = Pharmacokinetics following IV and oral administration, rats; assay type: in vivo, Sprague Dawley rats; settings: IV dosing
LXFS 573 SCLC PDX [17] = system: LXFS 573 SCLC PDX
human LSD-1 = human LSD-1 (Homo sapiens (Human), UniProt O60341); assay: In vitro enzyme inhibition assay LSD-1 (TR-FRET); assay type: biochemical; settings: H3K4me1-biotin labeled peptide
From the text: This assay determines the ability of a test compound to inhibit LSD-1 demethylase activity.
The enzymatic assay of LSD-1 activity is based on Time Resolved-Fluorescence Resonance Energy Transfer (TR-FRET) detection.

[18] = after escalating IV doses up to 20 mg base/kg
[19] = CD-1, Sprague Dawley, mouse, rat, rodents
[20] = Etoposide at 24 mg/kg/day SC days 1-3 + Vehicle
[21] = etoposide monotherapy 24 mg/kg SC

For `COc1ccc(-c2c(-c3ccc(C#N)c(F)c3)nc(N3CCC(N)CC3)n(C)c2=O)cc1F` [Compound A, 4-[2-(4-amino-piperidin-1-yl)-5-(3-fluoro-4-methoxy-phenyl)-1-methyl-6-oxo-1,6-dihydro-pyrimidin-4-yl]-2-fluoro-benzonitrile], the “mean body weight gain by the end of study” value (NCI-H1417 SCLC xenograft; 2.5 mg base/kg PO QDx65) was 1%, the “mean body weight gain by the end of study” value (NCI-H1417 SCLC xenograft; 5 mg base/kg PO QDx65) was 7.5% and the “tumors from treated animals regressed in net volume” value (NCI-H1417 SCLC xenograft; 2.5 and 5 mg base/kg groups together, end of study) was 14 out of 15. The tolerability (NCI-H1417 SCLC xenograft; 2.5 or 5 mg base/kg PO QDx65) was “well tolerated”, the “mean body weight losses” value (LXFS 573 SCLC PDX [1]) was no more than 3% and the “Median Tumor Volumes Day 15” value (MKL-1 hMCC xenograft) was 880 mm^3. For the same compound, the NOAEL [2] was less than 0.5 mg base/kg/dose, the “mean steady state AUC0-24” value [3] was 17,800 ng·hr/mL and the metabolic stability [4] was “greater in rat and dog followed by human and monkeys while being least stable in mouse hepatocytes”. For the same compound, the “increase in platelets on Day 8 compared with the end of the first dosing period” value ([5]; 10 mg/kg/day 5 days on/2 days off) was greater than 2 fold, the “reduction in neutrophil counts vs concurrent controls” value ([5]; females) was 66% and the “reduction in neutrophil counts vs concurrent controls” value ([5]; males) was 83%. For the same compound, the “greatest reduction in neutrophil counts vs concurrent controls and pre-study values” ([5]; 5 days on/2 days off schedule) was “approximately 90%”, the circulating platelets ([5]; all dose levels, end of the study) was “reduced” and the “accumulation upon repeat dosing” value ([5]; mice) was “no accumulation”. For the same compound, the mutagenicity [6] was “negative”, the “CYP enzyme responsible for oxidative metabolism” value [7] was “CYP3A4 appears to be predominantly responsible” and the “dose excreted intact (urine and bile)” value [8] was 26.3 % of the dose. The “dose excreted intact in urine” value [8] was 8.5 % of dose, the tolerability (LU2514 SCLC PDX; both LU2514 studies) was “well tolerated” and the “mean body weight losses” value (LU2514 SCLC PDX; mouse, in vivo) was less than 10%. For the same compound, the “cause of moribund condition” value ([9]; 0.375 to 1.5 mg base/kg weekly) was “gastric mucosal ulceration and/or acute inflammation”, the “accumulation after multiple dosing” value ([9]; dog, in vivo) was “No accumulation” and the platelet count ([9]; dog, in vivo) was “mildly to markedly decreased”. The AUC0-168 ([9]; female, Beagle, dog, in vivo, po) was 435 ng·h/mL, the Cmax ([9]; male, Beagle, dog, in vivo, po) was 17.2 ng/mL and the “HNSTD and NOAEL for the QW or BIW dose schedule” value ([9]; not determined) was less than 0.375 mg base/kg/dose. The moribund euthanasia ([9]; weekly oral, 1 male 0.375 QW, 2 males and 1 female 0.75, 3 males and 4 females 1.5 mg base/kg/dose, Days 13 to 23) was 11 animals, the “maximum increase of QTcB interval vs time-matched vehicle” value (“maximum increase of QTcB interval” for short) ([10]; 10 mg base/kg IV) was “approximately 9%” and the “maximum increase of QTcB interval” value ([10]; 15 mg base/kg IV) was roughly 13%. For the same compound, the “maximum increase of QTcB interval” value ([10]; 20 mg base/kg IV) was roughly 16%, the “decrease in HR, maximum suppression as compared with vehicle” value ([10]; 20 mg base/kg IV, 9 minutes into the 10-minute infusion) was 19% and the “effect in MAP or its components” value ([10]; 5-20 mg base/kg IV vs time-matched vehicle) was “No notable effect”. For the same compound, the “NOAEL for hemodynamic and ECG endpoints” value ([10]; IV administration) was 10 mg base/kg, the “QTcB interval increase at the end of the monitoring period” value [10, 18] was 10% and the “heart rate decrease at the end of the monitoring period” value [10, 18] was 18%. It also gave a half-life ([11]; Beagle, Cynomolgus, dog, monkey, non-rodents) of 12 to 20 h, a bioavailability ([11]; Beagle, dog, cynomolgus monkey, dogs and monkeys) of 82 to 100% and a Tmax ([11]; CD-1, Sprague Dawley, Beagle, mouse, rat, dog, cynomolgus monkey, oral dosing, mice, rats, dogs, and monkeys, read-out: median time to peak plasma concentration (tmax)) of 0.5 to 6 h. For the same compound, the half-life [11, 19] was 2 to 4 h, the bioavailability [11, 19] was 28 to 74% and the “Median Tumor Volumes Diff” value (MS-1 hMCC xenograft) was 80 mm^3. The “mean body weight losses” value (LXFS 1129 SCLC PDX) was less than 6%, the AUClast [12] was 2007 ng·h/mL and the direct inhibitory effect (CYP2C9) was “little to no direct inhibitory effect”. The direct inhibitory effect (CYP2D6) was “little to no direct inhibitory effect”, the “mean body weight losses” value (LXFS 615 SCLC PDX) was less than 1% and the treatment-related effects ([13]; 0.25 mg/kg/dose QOD) was “generally no Compound A-related effects”. The “accumulation after repeat dosing” value ([13]; QOD schedule) was “no accumulation”, the Papp (P-gp (human MDR1); MDCK-MDR1, A→B direction) was 0.5 ×10⁻⁶ cm/s and the Papp (P-gp (human MDR1); MDCK-MDR1, B→A direction) was 16.5 ×10⁻⁶ cm/s. For the same compound, the P-gp substrate status [14] was “P-gp substrate”, the “accumulation after multiple doses” value [15] was “No accumulation” and the AUC0-96 ([15]; female, Beagle, po, 0.25 mg/kg) was 343 ng·h/mL. For the same compound, the Cmax ([15]; female, Beagle, po, 0.25 mg/kg) was 12.1 ng/mL, the AUC0-96 ([15]; female, Beagle, po, 0.5 mg/kg) was 729 ng·h/mL and the systemic clearance [16] was “greater than liver blood flow”.
For `COc1cc([C@@H]2c3cc4c(cc3[C@@H](O[C@@H]3O[C@@H]5CO[C@@H](C)O[C@H]5[C@H](O)[C@H]3O)[C@H]3COC(=O)[C@H]23)OCO4)cc(OC)c1O` [Etoposide, etoposide, reference compound], the “% TGD” value (LXFS 573 SCLC PDX [17]; [20]) was 50%, the T-C (LXFS 573 SCLC PDX [17]; [20]) was 21 days and the “median TTE” value (LXFS 573 SCLC PDX [17]; [20]) was 63 days. The “SS number of study survivors” value (LXFS 573 SCLC PDX [17]; Etoposide at 24 mg/kg/day SC days 1-3 + Vehicle, Day 133, N=8) was 0 (na), the “% TGD” value (LXFS 573 SCLC PDX [17]; [21]) was 50% and the TGD (LXFS 573 SCLC PDX [17]; [21]) was 21 days. The “median TTE” value (LXFS 573 SCLC PDX [17]; [21]) was 63 days.
`CCn1c(N2CCC(N)CC2)nc(-c2ccc(C#N)c(F)c2)cc1=O` [Example 13, 4-[2-(4-amino-piperidin-1-yl)-1-ethyl-6-oxo-1,6-dihydro-pyrimidin-4-yl]-2-fluoro-benzonitrile] showed an IC50 (human LSD-1) of 0.1 to 1 µM.
`N#Cc1ccc(-c2cc(=O)n(CCCO)c(N3CCC(N)CC3)n2)cc1F` [Example 17, 4-[2-(4-amino-piperidin-1-yl)-1-(3-hydroxy-propyl)-6-oxo-1,6-dihydro-pyrimidin-4-yl]-2-fluoro-benzonitrile] gave an IC50 (human LSD-1) of 0.1 to 1 µM.
Compound `Cn1c(N2CCC(N)CC2)nc(-c2ccc(C#N)c(F)c2)c(-c2ccc(C(=O)O)cc2)c1=O` [Example 39, 4-[2-(4-aminopiperidyl)-6-(4-cyano-3-fluorophenyl)-3-methyl-4-oxo-3-hydropyrimidin-5-yl] benzoic acid] has an IC50 (human LSD-1) of 0.1 to 1 µM.
Compound `N#Cc1ccc(-c2cc(=O)n(CC3CC3)c(N3CCC(N)CC3)n2)cc1F` [Example 109, 4-[2-(4-amino-piperidin-1-yl)-1-cyclopropylmethyl-6-oxo-1,6-dihydro-pyrimidin-4-yl]-2-fluoro-benzonitrile] has an IC50 (human LSD-1) of 0.1 to 1 µM.
`Cn1c(N2CCC(N)CC2)nc(-c2ccncc2)c(-c2ccc3c(ccn3C)c2)c1=O` [Example 116, 2-(4-amino-piperidin-1-yl)-3-methyl-5-(1-methyl-1H-indol-5-yl)-6-pyridin-4-yl-3H-pyrimidin-4-one] gave an IC50 (human LSD-1) of 0.1 to 1 µM.
